Experimental findings from patent US20040266814A1, “Imidazopyridine compounds having 5-HT4 receptor agonistic activity and 5-HT3 receptor antagonistic activity” (Pfizer Inc, priority 2003, published 2004) are described below.

SMILES strings stand for the structures. Structures can show the parent of a compound that is named as a salt.

One data set addresses T1, Human 5-HT4(d) (Homo sapiens, UniProt Q13639).
T1 construct: expressed in transfected cells; host or cells: HEK293
As to the kind of experiment: Human 5-HT4 binding ([3H]-GR113808, SPA). The following applies: human 5-HT4(d) HEK293 membranes, read-out: h5HT4 Ki. The protocol:
Human S-HT4(d) transfected HEK293 cells were prepared and grown in-house. The collected cells were suspended in 50 mM HEPES (pH 7.4 at 4° C.) supplemented with protease inhibitor cocktail (Boehringer, 1:1000 dilution) and homogenized using a hand held Polytron PT 1200 disruptor set at full power for 30 sec on ice. The homogenates were centrifuged at 40,000×g at 4° C. for 30 min. The pellets were then resuspended in 50 mM HEPES (pH 7.4 at 4° C.) and centrifuged once more in the same manner. The final pellets were resuspended in an appropriate volume of 50 mM HEPES (pH 7.4 at 25° C.), homogenized, aliquoted and stored at −80° C. until use. An aliquot of membrane fractions was used for protein concentration determination using BCA protein assay kit (PIERCE) and ARVOsx plate reader (Wallac).
For the binding experiments, 25 μl of test compounds were incubated with 25 μl of [^3H]-GR113808 (Amersham, final 0.2 nM) and 150 μl of membrane homogenate and WGA-SPA beads (Amersham) suspension solutions (10 μg protein and 1 mg SPA beads/well) for 60 minutes at room temperature. Nonspecific binding was determined by 1 μM GR113808 (Tocris) at the final concentration. Incubation was terminated by centrifugation at 1000 rpm. Receptor-bound radioactivity was quantified by counting with MicroBeta plate counter (Wallac).

The target in another data set is T2, rat 5-HT3 receptors (Rattus norvegicus, UniProt P35563).
T2 construct: Cerebral cortical tissues were removed from male Sprague-Dawley (SD) rats; from tissue; host or cells: cerebral cortex of male Sprague-Dawley rats (membranes)
T2 sequence (P35563 24-483): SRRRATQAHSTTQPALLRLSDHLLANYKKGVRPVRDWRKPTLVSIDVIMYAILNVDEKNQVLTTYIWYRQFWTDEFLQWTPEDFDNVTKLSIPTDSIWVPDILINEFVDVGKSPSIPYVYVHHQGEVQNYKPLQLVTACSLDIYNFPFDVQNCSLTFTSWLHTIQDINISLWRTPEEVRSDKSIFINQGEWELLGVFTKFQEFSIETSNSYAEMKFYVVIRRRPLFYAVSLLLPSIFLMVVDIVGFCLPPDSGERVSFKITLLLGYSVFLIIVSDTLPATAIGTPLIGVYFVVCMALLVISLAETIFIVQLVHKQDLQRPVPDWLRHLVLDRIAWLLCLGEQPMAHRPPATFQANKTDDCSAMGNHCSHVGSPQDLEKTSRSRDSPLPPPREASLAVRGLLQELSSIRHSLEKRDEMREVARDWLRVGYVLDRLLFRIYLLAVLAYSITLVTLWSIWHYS
As to the kind of experiment: Rat 5-HT3 receptor binding ([3H]-BRL 43694, rat cortical membranes). The following applies: read-out: r5HT3 Binding Ki. The protocol: Cerebral cortical tissues were removed from male Sprague-Dawley (SD) rats (Japan SLC), weighed and placed in 10 volumes of 50 mM ice-cold Tris-HCl (pH 7.5). This was homogenized in a Polytron homogenizer (30 sec at full speed) and subsequently centrifuged at 48,000 g and 4° C. for 15 min. The resulting pellet was resuspended in 50 mM ice-cold Tris-HCl, homegenized and centrifuged again in the same way. The final pellet was resuspended in an appropriate volume of 50 mM Tris-HCl, dispensed into aliquots and stored at −80° C. until use.
The protein concentrations of homogenates were determined by Bradford method or BCA protein method (Pierce) with BSA as a standard.
Affinity of compounds for pig or bovine 5-HT4 and rat 5-HT3 receptors were assessed with using radiolabeled specific ligands, GR 113808 ({1-[2-(methylsulfonyl)ethyl]-4-piperidinyl} [methyl-^3H]-1H-indole-3-carboxylate) and BRL 43694 (1-Methyl-N-(9-[methyl-^3H]-9-azabicyclo [3.3.1]non-3-yl)-1H-indazole-3-caboxamide). Compounds were incubated with 25-100 pM of [^3H]-GR 113808 (Amersham) and 0.6-1 mg protein of pig or bovine striatal membranes suspended in a final volume of 0.8-1 ml of 50 mM Tris-HCl (pH 7.5). Nonspecific binding was determined with 10-50 μM 5-HT. The binding of 0.3 nM [^3H]-BRL 43694 (NEN) was measured using 400 μg protein of rat cortical membranes suspended in a final volume of 500 μl of 50 mM Tris-HCl (pH 7.5)., Nonspecific binding was determined with 10 μM 5-HT.
The plates were incubated at room temperature on a plate shaker for 30 min. The assays were stopped by rapid filtration using a Brandell cell harvester through Wallac-B filters pre-soaked in 0.2% poly(ethylenimine) at 4° C. for 60-90 min. The filters were washed three times with 1 ml of ice-cold 50 mM HEPES, and were dried in a microwave or at room temperature. They were bagged and heated with meltilex scintillant (Wallac) or soaked in BetaplateScint (Wallac). Receptor-bound radioactivity was quantified using Big-spot counter, Betaplate counter (Wallac) or LS counter (Packard).

The target of data set [1] is T3, Human 5-HT4(d) transfected HEK293 cells (Homo sapiens, UniProt Q13639).
T3 construct: expressed in transfected cells; host or cells: HEK293
T3 sequence (Q13639 1-360 isoform Q13639-3): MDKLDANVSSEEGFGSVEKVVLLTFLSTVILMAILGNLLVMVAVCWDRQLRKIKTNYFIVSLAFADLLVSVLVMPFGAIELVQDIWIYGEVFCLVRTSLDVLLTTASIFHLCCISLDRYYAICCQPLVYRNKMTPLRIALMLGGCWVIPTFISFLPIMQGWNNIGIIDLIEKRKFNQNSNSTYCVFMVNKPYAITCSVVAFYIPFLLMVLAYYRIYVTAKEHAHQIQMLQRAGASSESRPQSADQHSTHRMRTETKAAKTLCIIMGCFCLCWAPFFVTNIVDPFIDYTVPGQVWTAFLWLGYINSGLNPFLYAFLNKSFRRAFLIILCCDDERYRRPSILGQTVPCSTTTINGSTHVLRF
The data set can be described thus: Agonist-induced cAMP elevation in human 5-HT4(d) transfected HEK293 cells. The class given is cell-based. To be noted: for Emax: HEK293, normalized to cAMP produced by 1000 nM serotonin, read-out: cAMP 5HT4 function Emax; for EC50: human 5-HT4(d) transfected HEK293 cells, read-out: cAMP 5HT4 function; for cAMP 5HT4 function, verdict in words: table remark in brackets. The protocol: Agonist-Induced cAMP Elevation in Human 5-HT4(d) Transfected HEK293 Cells
Human 5-HT4(d) transfected HEK293 cells were established in-house. The cells were grown at 37° C. and 5% CO2 in DMEM supplemented with 10% FCS, 20 mM HEPES (pH 7.4), 200 μg/ml hygromycin B (Gibco), 100 units/ml penicillin and 100 μg/ml streptomycin.
The cells were grown to 60-80% confluence. On the previous day before treatment with compounds dialyzed FCS (Gibco) was substituted for normal and the cells were incubated overnight.
Compounds were prepared in 96-well plates (12.5 μl/well). The cells were harvested with PBS/1 mM EDTA, centrifuged and washed with PBS. At the beginning of the assay, cell pellet was resuspended in DMEM supplemented with 20 mM HEPES, 10 μM pargyline (Sigma) and 1 mM 3-isobutyl-1-methylxanthine (Sigma) at the concentration of 1.6×10^5 cells/ml and left for 15 minutes at room temperature. The reaction was initiated by addition of the cells into plates (12.5 μl/well). After incubation for 15 minutes at room temperature, 1% Triton X-100 was added to stop the reaction (25 μl/well) and the plates were left for 30 minutes at room temperature. Homogenous time-resolved fluorescence-based cAMP (Schering) detection was made according to the manufacturer's instruction. ARVOsx multilabel counter (Wallac) was used to measure HTRF (excitation 320 nm, emission 665 nm/620 nm, delay time 50 μs, window time 400 μs).
Data was analyzed based on the ratio of fluorescence intensity of each well at 620 nm and 665 nm followed by cAMP quantification using cAMP standard curve. Enhancement of cAMP production elicited by each compound was normalized to the amount of cAMP produced by 1000 nM serotonin (Sigma).

Another data set addresses T4, 5-HT3 (Cavia porcellus, UniProt O70212).
T4 construct: 5-HT3 antagonist assay in guinea-pig longitudinal muscle-myenteric plexus (LMMP); from tissue; host or cells: guinea-pig longitudinal muscle-myenteric plexus (LMMP)
T4 sequence (O70212 20-490): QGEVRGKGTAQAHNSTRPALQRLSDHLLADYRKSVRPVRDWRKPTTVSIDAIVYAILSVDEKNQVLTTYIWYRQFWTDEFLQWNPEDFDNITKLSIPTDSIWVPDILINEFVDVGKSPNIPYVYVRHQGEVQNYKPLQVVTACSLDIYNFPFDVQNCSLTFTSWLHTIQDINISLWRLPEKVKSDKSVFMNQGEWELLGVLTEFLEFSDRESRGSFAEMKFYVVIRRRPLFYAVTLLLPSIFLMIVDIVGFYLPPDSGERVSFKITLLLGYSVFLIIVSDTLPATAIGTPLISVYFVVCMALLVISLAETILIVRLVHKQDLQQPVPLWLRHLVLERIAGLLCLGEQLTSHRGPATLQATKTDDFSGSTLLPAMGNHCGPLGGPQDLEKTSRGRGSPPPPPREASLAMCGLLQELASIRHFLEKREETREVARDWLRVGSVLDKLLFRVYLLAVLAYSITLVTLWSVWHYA
The data set can be described thus: 5-HT3 antagonist assay in guinea-pig longitudinal muscle-myenteric plexus (LMMP). The protocol:
5-HT3 Functional Assay Method
5-HT3 antagonist assay in guinea-pig longitudinal muscle-myenteric plexus (LMMP): The LMMP tissues were prepared according to the method of A. Butler et al. (Br. J. Pharmacology, 101: 591-598, 1990) and their 5-HT4 receptors were desensitized by performing in 10 μM of 5-methoxytryptamine-containing Krebs solution. Non-cumulative concentration-effect curves (CECs) to 5-HT were constructed across the range […] in half-log unit increments. After 60-minute-equilibration with antagonists, 2nd CECs to 5-HT were constructed until 1 mM.

T1 sequence (Q13639 1-360 isoform Q13639-3): as the sequence (Q13639 1-360 isoform Q13639-3) above

In general, Ki refers to the dissociation constant of the complex between target and ligand, obtained from inhibition or displacement. What is called Emax is the size of the effect at its maximum, as opposed to the concentration needed. As for `Cc1cn2c(N)c(Cl)cc(C(=O)NCC3CCNCC3)c2n1` [Example 1, 5-AMINO-6-CHLORO-2-METHYL-N-(PIPERIDIN-4-YLMETHYL)-IMIDAZO[1,2-a]PYRIDINE-8-CARBOXAMIDE], at Human 5-HT4(d), the Ki amounted to 58 nM. For the same molecule, the Ki at rat 5-HT3 receptors came to 26 nM. In data set [1], the Emax was found to be 88% and the EC50 was 13.6 nM.

For the molecule `CN(C)C1(CCNC(=O)c2cc(Cl)cn3ccnc23)CCCCC1`, the Ki at rat 5-HT3 receptors stood at 785 nM.

On to `O=C(NC1CN2CCC1CC2)c1cc(Cl)cn2ccnc12` (centres unmarked) [C], for which the Ki at rat 5-HT3 receptors turned out to be 6 nM. In addition, in data set [1], the “5HT4 receptor agonistic activity” value was “inactive”; the Emax is 11%; the EC50 came to 2660 nM; the “cAMP 5HT4 function, verdict in words” value is “inactive”.

Turning to `CCCCN1CCC(CNC(=O)c2cc(Cl)cn3ccnc23)CC1` [compound B], at Human 5-HT4(d), the Ki is 1.1 nM. Besides, the inhibition constant Ki on rat 5-HT3 receptors was determined as 4300 nM. In data set [1], the “5HT4 receptor agonistic activity” value is “inactive” and the “cAMP 5HT4 function, verdict in words” value was “inactive”. Moreover, in data set [1] (@1000 [nM], normalized to 1000 nM serotonin), the “cAMP 5HT4 function, % @1000” value was 0%.

As a reminder, the melting point is the temperature, or range, at which the solid turns liquid. `CCc1cn2c(N)c(Cl)cc(C(=O)NCC3CCNCC3)c2n1` [Example 2, 5-AMINO-6-CHLORO-2-ETHYL-N-(PIPERIDIN-4-YLMETHYL)IMIDAZO[1,2-a]PYRIDINE-8-CARBOXAMIDE] registered a melting point of 153 °C. The Ki at Human 5-HT4(d) worked out at 109 nM. At rat 5-HT3 receptors, the Ki amounted to 48 nM. Moreover, in data set [1], the Emax amounted to 58% and the EC50 is 40 nM. Further, on 5-HT3 (antagonism of 5-HT), the “LMMP 5HT3 function pA” value was determined as 6.6. Also, the Kb on 5-HT3 (read-out: pA2 (5HT3 antagonistic functional activity) (converted)) is 251 nM.

Molecule `Cc1cn2c(N)c(Cl)cc(C(=O)NCC3CCNCC3)c2n1` (as salt: hydrochloride) [Example 1, 5-AMINO-6-CHLORO-2-METHYL-N-(PIPERIDIN-4-YLMETHYL)-IMIDAZO[1,2-a]PYRIDINE-8-CARBOXAMIDE] came in with a melting point of 237 °C.
